Eight molecules from paper PMC6459286, “Intestinal TGR5 agonism improves hepatic steatosis and insulin sensitivity in Western diet-fed mice” (American Journal of Physiology - Gastrointestinal and Liver …, 2019) can be followed below.

Marks after values point to notes of the source that are not given here.

Data set [1] is described as follows: Caco-2 bidirectional permeability assay. As to conditions: human, Caco-2; for recovery: Caco-2, Recovery. (In general: Caco-2 cells form a polarised layer with tight junctions and transporters.)
Another data set relates to MDCK cell monolayers. Put plainly: MDCK bidirectional permeability assay.
The subject of a further data set is Caco-2 cell monolayers. The experiment in a line: Caco-2 bidirectional permeability assay.
A further data set has as its system C57BL/6 mice fed HFCD. The experiment in a line: GLP-1 and GLP-2 agonists in HFCD-fed mice. In kind it is in vivo. As to conditions: for Plasma glucose: 4-h fasted; for Plasma glucose / Plasma total cholesterol / Plasma triglycerides: day 28, means ± SE; for Plasma total bilirubin levels: data not shown; for Body weight: day 33, liraglutide 200 µg/kg or teduglutide 400 µg/kg sc twice daily, means ± SE; for Plasma insulin: day 34, means ± SE; for HFCD-increased hepatic expression of genes involved in inflammation and fibrotic processes: liver RNA sequencing. On the procedure:
At 19 wk old, mice began treatment. […] Mice were weighed each week. Before treatment and on days 14 and 28 of treatment, the mice were fasted for 4 h, and blood was then collected via the tail vein and processed to plasma for measurement of alanine aminotransferase (ALT), aspartate aminotransferase (AST), alkaline phosphatase (AP), glucose, triglycerides, and total cholesterol using an ACE Axcel clinical analyzer (Alfa Wassermann, West Caldwell, NJ). After 34 days of treatment, the mice were fasted for 6–8 h and were euthanized under anesthesia. Blood was collected and processed to plasma for measurement of insulin [using an MSD immunoassay (Meso Scale Discovery)], and ALT, AST, AP, and total bilirubin levels [using an ACE Axcel clinical analyzer (Alfa Wassermann)]. The entire liver was collected and weighed, and samples of liver were weighed for measurement of triglycerides and total cholesterol levels at University of California, Davis, CA [using the Folch method ([17])]; histological assessments of steatosis, inflammation, and fibrosis were performed using hematoxylin-and-eosin stains, and Sirius red stains (Wax-it Histology Services, Vancouver, BC, Canada and Pacific Tox Path, Ellensburg, WA). Scoring of hepatic pathology was conducted according to descriptions provided by Thoolen et al. ([32]). For gene expression studies, total RNA from mouse liver tissues was isolated using a RNeasy 96 universal tissue kit (Qiagen, Hilden, Germany). A gene expression library was prepared with 100 ng of each RNA sample using a TruSeq Stranded mRNA Library NeoPrep kit (Illumina, Hayward, CA). Library samples were subsequently multiplexed and sequenced using an Illumina NextSeq 500 sequencer (San Diego, CA). Sequences of two 75-base pair ends were obtained for all samples and mapped to the mouse transcriptome, using STAR (Spliced Transcripts Alignment to a Reference) alignment with default parameters (Basespace Cloud, Illumina) and normalized using trimmed mean of M-values method in EdgeR software (Bioconductor; https://www.bioconductor.org/). Differentiation gene expression analysis was evaluated using EdgeR. R platform (https://www.r-project.org/) was used for principal component analysis and heat map analysis. Gene ontology and network correlation analysis were performed using Gorilla (http://cbl-gorilla.cs.technion.ac.il/) and WGNCA (https://horvath.genetics.ucla.edu/html/CoexpressionNetwork/Rpackages/WGCNA/).

A further data set has as its system P-gp. The experiment in a line: MDCK bidirectional permeability assay. Particulars: dog; for recovery: + verapamil 100 μM.
Data set [2] deals with intestinal L-cell hormones (aGLP-1, tGLP-1, tGLP-2, PYY). The experiment in a line: Secretion of intestinal L-cell hormones in mice fed a standard diet. In kind it is in vivo, C57BL/6 mice. As to conditions: repeat dosing 4 days, 8 h. On the procedure: Adult male C57BL/6 mice (Taconic) fed standard chow (Harlan Teklad 2018) were dosed orally with vehicle (2% DMSO, 10% HPβCD, 10 mM PBS-HCl) or RDX8940 in separate experiments, as described below. After dosing, mice were anesthetized, and blood was collected via cardiac puncture into K3EDTA-containing tubes (Greiner Bio-one); then, the mice were euthanized. If active GLP-1 (aGLP-1) concentrations were measured, sitagliptin and aprotinin were added to the tubes before blood collection. Blood was processed to plasma for the measurement of incretins; aGLP-1, tGLP-1, and PYY concentrations were assessed using MSD immunoassays (Meso Scale Discovery), whereas total GLP-2 (tGLP-2) concentrations were quantified using a mouse GLP-2 ELISA (ALPCO, Salem, NH).
In the first experiment, mice were administered vehicle or a single dose of RDX8940 (10, 30, or 100 mg/kg), fasted, and plasma tGLP-1 concentrations were measured 8 h after dose. In a second experiment, mice were administered repeated doses of vehicle or RDX8940 30 mg/kg twice daily over 4 days. After the last dose, the mice were fasted and plasma tGLP-1 concentrations were measured 8 h later. […] After the single or last dose, the mice were fasted, and plasma concentrations of aGLP-1, tGLP-1, tGLP-2, and PYY were measured 8, 10, and 12 h later. […]

The subject of data set [3] is C57BL/6 mice fed Western diet. The experiment in a line: Western diet-fed mice (NAFLD and mild insulin resistance model). It is filed as in vivo. Particulars: for 4-h fasted plasma glucose vs vehicle: days 15 and 29, agent alone. On the procedure:
Six-week-old male C57BL/6 mice (Taconic) were fed Western diet chow (Harlan Teklad TD.88137, 21.2% fat, 0.2% cholesterol, 42.0% kcal from fat) for 10 wk to model NAFLD and mild insulin resistance. […] An additional vehicle (administered orally twice daily) control group (lean) was fed standard chow (Harlan Teklad 2018) throughout the study (n = 10). […], mice were fasted for 4 h after the first dose, and blood was then collected via the tail vein for measurement of plasma glucose and insulin concentrations using a glucometer (Abbott Animal Health, Abbott Park, IL) and an MSD immunoassay (Meso Scale Discovery), respectively. On day 29, mice were fasted longer (a total of 7–8 h), were anesthetized, and had blood collected via cardiac puncture for the measurement of GLP-1 levels. Mice were then euthanized under anesthesia for the collection of liver tissue. Hepatic triglyceride and cholesterol content were determined at the University of California, Davis, CA, using the Folch method ([17]).

The next data set relates to gallbladder emptying. Put plainly: Gallbladder emptying in mice. As to conditions: CD-1 mice, single oral dose; RDX8940 30 and 100 mg/kg, INT-777 30 mg/kg.

One may read the efflux ratio as a quotient of directional permeabilities that is used to spot active efflux. With `CNC(=C[N+](=O)[O-])NCCSCc1ccc(CN(C)C)o1` [Ranitidine], in data set [1], the Papp A→B at 10 µM came out at 0.91 ×10⁻⁶ cm/s, the Papp B→A at 10 µM worked out at 3.02 ×10⁻⁶ cm/s and the efflux ratio at 10 µM stood at 3.34. This molecule registered a recovery in data set [1] (A→B) of 78%. The molecule also had a recovery in data set [1] (B→A) of 87%.

`CC(C)NCC(O)COc1cccc2ccccc12` (stereo not shown) [Propranolol]: in the data set with MDCK cell monolayers (10 μM, without verapamil), the “Papp A→B” value amounted to 14.19 cm/s × 10^−6 and the “Papp B→A” value worked out at 7.03 cm/s × 10^−6. Moreover, in the data set on MDCK cell monolayers (+ verapamil 100 μM), the “Recovery, B→A” value is given as 98%. In the data set with Caco-2 cell monolayers (Caco-2), the “Recovery, A→B” value turned out to be 56% and the “Recovery, B→A” value is given as 78%. In the data set with Caco-2 cell monolayers (Caco-2, 10 μM), the “Papp A→B” value stood at 67.06 cm/s × 10^−6 and the “Papp B→A” value amounted to 19.62 cm/s × 10^−6.

In the case of teduglutide, in the data set with C57BL/6 mice fed HFCD, the “Hepatic total cholesterol content vs vehicle” value is recorded as “significantly decreased”, the “Hepatic triglyceride content vs vehicle” value is reported as “significantly decreased”, the “Hepatic weight vs vehicle” value is on record as “significantly decreased” and the “Plasma ALT levels vs vehicle” value is on record as “significantly decreased”. Besides, in the data set on C57BL/6 mice fed HFCD, the “Plasma AP levels vs vehicle” value is on record as “significantly decreased”, the “Plasma AST levels vs vehicle” value is listed as “significantly decreased”, the Plasma glucose amounted to 205 ± 5 mg/dL and the “Plasma total bilirubin levels” value was “Neither liraglutide nor teduglutide significantly affected”. In the data set with C57BL/6 mice fed HFCD, this molecule came in with a Plasma total cholesterol of 279 ± 16 mg/dL, a Plasma triglycerides of 84 ± 1 mg/dL, a Body weight of 37.9 ± 0.9 g and a Plasma insulin of 0.95 ± 0.20 ng/mL. Moreover, in the data set with C57BL/6 mice fed HFCD, the “HFCD-increased hepatic expression of genes involved in inflammation and fibrotic processes” value was “abrogated this effect in many cases”. In the data set with C57BL/6 mice fed HFCD (median), the Fibrosis score is 2, the Macrovesicular steatosis score is reported as 2.00 ^* and the Microvesicular steatosis score is 2.0.

The molecule `CC(CCc1ccccc1)NCC(O)c1ccc(O)c(C(N)=O)c1` (stereo not shown) [Labetalol] gave a Papp A→B at 10 µM in data set [1] of 19.4 ×10⁻⁶ cm/s. Moreover, the Papp B→A at 10 µM in data set [1] was determined as 31.6 ×10⁻⁶ cm/s. The recovery worked out at 64% in data set [1] (A→B) and 80% in data set [1] (B→A).

Take `COc1cc2c(c(OC)c1OC)-c1ccc(OC)c(=O)cc1[C@@H](NC(C)=O)CC2` [Colchicine]: the Papp A→B at 10 µM stood at 0.85 ×10⁻⁶ cm/s in the data set on P-gp and 0.23 ×10⁻⁶ cm/s in data set [1]. Also, the Papp B→A at 10 µM in the data set with P-gp came out at 2.31 ×10⁻⁶ cm/s; in data set [1] it was 6.18 ×10⁻⁶ cm/s. Moreover, the efflux ratio at 10 µM was determined as 2.72 in the data set on P-gp and 27.4 in data set [1]. Also, the recovery stood at 120% in the data set with P-gp (A→B), 113% in the data set on P-gp (B→A), 69% in data set [1] (A→B) and 80% in data set [1] (B→A).

Consider `CC#CCn1c(N2CCC[C@@H](N)C2)nc2c1c(=O)n(Cc1nc(C)c3ccccc3n1)c(=O)n2C` [linagliptin], for which, in data set [2] (monotherapy (RDX8940 30 mg/kg b.i.d.; linagliptin 10 mg/kg q.d.)), the “aGLP-1 levels in the portal vein vs vehicle” value was “did not significantly affect”. In addition, the “Systemic concentrations of aGLP-1 vs vehicle” value in data set [2] (monotherapy) is given as “did not significantly increase”. Further, the “4-h fasted plasma insulin vs vehicle” value in data set [3] (day 29, agent alone) was “lowered”. In addition, the “4-h fasted plasma glucose vs vehicle” value in data set [3] is on record as “lowered”.

Take INT-777: the “Gallbladder emptying (gallbladder weight, egg yolk vs saline)” value in the data set with gallbladder emptying is listed as “inhibition of gallbladder emptying”.

As to liraglutide, the “4-h fasted plasma insulin vs vehicle” value in data set [3] (day 29, agent alone) is on record as “lowered”. Further, the Hepatic triglyceride levels result in data set [3] (day 29, agent alone, RDX8940 P < 0.001) is “reduced”. Also, in data set [3] (day 29, agent alone, RDX8940 P < 0.01), the Hepatic cholesterol levels result is reported as “reduced”. Besides, the Liver weight entry in data set [3] (day 29, agent alone, RDX8940 P < 0.05) is “reduced”. Besides, in data set [3], the “4-h fasted plasma glucose vs vehicle” value was “lowered”. In the data set with C57BL/6 mice fed HFCD, the “Hepatic total cholesterol content vs vehicle” value is on record as “significantly decreased”, the “Hepatic triglyceride content vs vehicle” value is “significantly decreased”, the “Hepatic weight vs vehicle” value was “significantly decreased” and the “Plasma ALT levels vs vehicle” value is “significantly decreased”. Besides, in the data set with C57BL/6 mice fed HFCD, the “Plasma AP levels vs vehicle” value is recorded as “significantly decreased”, the “Plasma AST levels vs vehicle” value is on record as “significantly decreased”, the Plasma glucose amounted to 185 ± 13 mg/dL and the “Plasma total bilirubin levels” value is “Neither liraglutide nor teduglutide significantly affected”. For the same molecule, in the data set with C57BL/6 mice fed HFCD, the Plasma total cholesterol came to 230 ± 16 mg/dL, the Plasma triglycerides came out at 59 ± 3 mg/dL, the Body weight is 31.4 ± 0.8 g and the Plasma insulin was 0.40 ± 0.11 ng/mL. In addition, in the data set with C57BL/6 mice fed HFCD, the “HFCD-increased hepatic expression of genes involved in inflammation and fibrotic processes” value is “abrogated this effect in many cases”. In addition, in the data set on C57BL/6 mice fed HFCD (median), the Fibrosis score was 2 and the Microvesicular steatosis score is reported as 0.5 ^****.
